Measured values as given in the supplement of paper PMC13380429.

How the values were obtained:
Settings in all cases: 72 h
U2OS [1] = test: cell viability relative to DMSO; higher = less toxic
Calu-3 [2] = test: as above
Caco-2 [3] = test: as above
Vero E6 [4] = test: as above
U2OS [5] = test: drug sensitivity score (DSS) for viability; higher = more toxic; extreme values may be limits of the assay
Calu-3 [6] = test: as above
Caco-2 [7] = test: as above
Vero E6 [8] = test: as above
U2OS [9] = test: relative viability EC50 (midpoint between 100% and the lowest measured viability); higher = less toxic
Calu-3 [10] = test: as above
Caco-2 [11] = test: as above
Vero E6 [12] = test: as above
HepG2 [13] = test: cell viability relative to DMSO; higher = less toxic
HepG2 [14] = test: drug sensitivity score (DSS) for viability; higher = more toxic; extreme values may be limits of the assay
HepG2 [15] = test: relative viability EC50 (midpoint between 100% and the lowest measured viability); higher = less toxic

For CCOCOC[C@H](C[C@H](C)C(=O)NO)NC(=O)c1ccc(Oc2ccccc2)cc1 [ONO-4817], the cell viability (U2OS [1]; 1 nM) was 98.1%, the cell viability (U2OS [1]; 10 nM) was 103% and the cell viability (U2OS [1]; 100 nM) was 97.1%. The cell viability (U2OS [1]; 1000 nM) was 104%, the cell viability (U2OS [1]; 10000 nM) was 92.6% and the cell viability (Calu-3 [2]; 1 nM) was 92.3%. The cell viability (Calu-3 [2]; 10 nM) was 85.3%, the cell viability (Calu-3 [2]; 100 nM) was 97.6% and the cell viability (Calu-3 [2]; 1000 nM) was 95.4%. The cell viability (Calu-3 [2]; 10000 nM) was 89.2%, the cell viability (Caco-2 [3]; 1 nM) was 104% and the cell viability (Caco-2 [3]; 10 nM) was 104%. The cell viability (Caco-2 [3]; 100 nM) was 100%, the cell viability (Caco-2 [3]; 1000 nM) was 103% and the cell viability (Caco-2 [3]; 10000 nM) was 87.6%. For the same molecule, the cell viability (Vero E6 [4]; 1 nM) was 103%, the cell viability (Vero E6 [4]; 10 nM) was 102% and the cell viability (Vero E6 [4]; 100 nM) was 103%. The cell viability (Vero E6 [4]; 1000 nM) was 101%, the cell viability (Vero E6 [4]; 10000 nM) was 91.5% and the drug sensitivity score (U2OS [5]) was 0. For the same molecule, the drug sensitivity score (Calu-3 [6]) was 0, the drug sensitivity score (Caco-2 [7]) was 0 and the drug sensitivity score (Vero E6 [8]) was 0. The “relative viability EC50” value (U2OS [9]) was greater than 10 µM, the “relative viability EC50” value (Calu-3 [10]) was greater than 10 µM and the “relative viability EC50” value (Caco-2 [11]) was greater than 10 µM. The “relative viability EC50” value (Vero E6 [12]) was greater than 10 µM.

Molecule O=C1NC(=O)[C@@H](c2cn3c4c(cccc24)CCC3)[C@@H]1c1c[nH]c2ccccc12 [tivantinib] has a cell viability (U2OS [1]; 1 nM) of 102%, a cell viability (U2OS [1]; 10 nM) of 102% and a cell viability (U2OS [1]; 100 nM) of 95.1%. For the same molecule, the cell viability (U2OS [1]; 1000 nM) was 51.9%, the cell viability (U2OS [1]; 10000 nM) was 26.2% and the cell viability (Calu-3 [2]; 1 nM) was 98.3%. It also gave a cell viability (Calu-3 [2]; 10 nM) of 94.1%, a cell viability (Calu-3 [2]; 100 nM) of 98.9% and a cell viability (Calu-3 [2]; 1000 nM) of 72.6%. The cell viability (Calu-3 [2]; 10000 nM) was 59.6%, the cell viability (Caco-2 [3]; 1 nM) was 107% and the cell viability (Caco-2 [3]; 10 nM) was 94.3%. The cell viability (Caco-2 [3]; 100 nM) was 103%, the cell viability (Caco-2 [3]; 1000 nM) was 60.2% and the cell viability (Caco-2 [3]; 10000 nM) was 44.7%. It also gave a cell viability (Vero E6 [4]; 1 nM) of 97.3%, a cell viability (Vero E6 [4]; 10 nM) of 99.8% and a cell viability (Vero E6 [4]; 100 nM) of 92.8%. It also gave a cell viability (Vero E6 [4]; 1000 nM) of 36.5%, a cell viability (Vero E6 [4]; 10000 nM) of 28.2% and a cell viability (HepG2 [13]; 1 nM) of 108%. For the same molecule, the cell viability (HepG2 [13]; 10 nM) was 96.5%, the cell viability (HepG2 [13]; 100 nM) was 99.5% and the cell viability (HepG2 [13]; 1000 nM) was 39.5%. For the same molecule, the cell viability (HepG2 [13]; 10000 nM) was 41.5%, the drug sensitivity score (U2OS [5]) was 10.1 and the drug sensitivity score (Calu-3 [6]) was 5.3. It also gave a drug sensitivity score (Caco-2 [7]) of 7.7, a drug sensitivity score (Vero E6 [8]) of 12.7 and a drug sensitivity score (HepG2 [14]) of 11.1. For the same molecule, the “relative viability EC50” value (U2OS [9]) was 0.648 µM, the “relative viability EC50” value (Caco-2 [11]) was 0.688 µM and the “relative viability EC50” value (Vero E6 [12]) was 0.331 µM. The “relative viability EC50” value (HepG2 [15]) was 0.311 µM.

Work on Cn1cc(/C=C2\C(=O)Nc3cccnc32)c2ccccc21 yielded a cell viability (U2OS [1]; 1 nM) of 93.9%, a cell viability (U2OS [1]; 10 nM) of 98.4% and a cell viability (U2OS [1]; 100 nM) of 95.3%. The cell viability (U2OS [1]; 1000 nM) was 101%, the cell viability (U2OS [1]; 10000 nM) was 99.5% and the cell viability (Calu-3 [2]; 1 nM) was 88.6%. The cell viability (Calu-3 [2]; 10 nM) was 114%, the cell viability (Calu-3 [2]; 100 nM) was 102% and the cell viability (Calu-3 [2]; 1000 nM) was 109%. It also gave a cell viability (Calu-3 [2]; 10000 nM) of 122%, a cell viability (Caco-2 [3]; 1 nM) of 97.9% and a cell viability (Caco-2 [3]; 10 nM) of 94.4%. For the same molecule, the cell viability (Caco-2 [3]; 100 nM) was 95.2%, the cell viability (Caco-2 [3]; 1000 nM) was 94% and the cell viability (Caco-2 [3]; 10000 nM) was 91.7%. The cell viability (Vero E6 [4]; 1 nM) was 96%, the cell viability (Vero E6 [4]; 10 nM) was 97.1% and the cell viability (Vero E6 [4]; 100 nM) was 92.7%. The cell viability (Vero E6 [4]; 1000 nM) was 87%, the cell viability (Vero E6 [4]; 10000 nM) was 106% and the drug sensitivity score (U2OS [5]) was 0. For the same molecule, the drug sensitivity score (Calu-3 [6]) was 0, the drug sensitivity score (Caco-2 [7]) was 0 and the drug sensitivity score (Vero E6 [8]) was 0. The “relative viability EC50” value (U2OS [9]) was greater than 10 µM, the “relative viability EC50” value (Calu-3 [10]) was greater than 10 µM and the “relative viability EC50” value (Caco-2 [11]) was greater than 10 µM. For the same molecule, the “relative viability EC50” value (Vero E6 [12]) was greater than 10 µM.

With CCN(CCO)CCCOc1ccc2c(Nc3cc(CC(=O)Nc4cccc(F)c4)[nH]n3)ncnc2c1 [barasertib-HQPA] the cell viability (U2OS [1]; 1 nM) was 94.4%, the cell viability (U2OS [1]; 10 nM) was 95.8% and the cell viability (U2OS [1]; 100 nM) was 93.7%. The cell viability (U2OS [1]; 1000 nM) was 91.7%, the cell viability (U2OS [1]; 10000 nM) was 87% and the cell viability (Calu-3 [2]; 1 nM) was 95.1%. For the same molecule, the cell viability (Calu-3 [2]; 10 nM) was 93%, the cell viability (Calu-3 [2]; 100 nM) was 97.2% and the cell viability (Calu-3 [2]; 1000 nM) was 92.6%. For the same molecule, the cell viability (Calu-3 [2]; 10000 nM) was 94.2%, the cell viability (Caco-2 [3]; 1 nM) was 93% and the cell viability (Caco-2 [3]; 10 nM) was 100%. It also gave a cell viability (Caco-2 [3]; 100 nM) of 78.4%, a cell viability (Caco-2 [3]; 1000 nM) of 91.6% and a cell viability (Caco-2 [3]; 10000 nM) of 88.4%. It also gave a cell viability (Vero E6 [4]; 1 nM) of 93.8%, a cell viability (Vero E6 [4]; 10 nM) of 96% and a cell viability (Vero E6 [4]; 100 nM) of 98.2%. For the same molecule, the cell viability (Vero E6 [4]; 1000 nM) was 91%, the cell viability (Vero E6 [4]; 10000 nM) was 88.2% and the cell viability (HepG2 [13]; 1 nM) was 99.5%. For the same molecule, the cell viability (HepG2 [13]; 10 nM) was 99.7%, the cell viability (HepG2 [13]; 100 nM) was 77.8% and the cell viability (HepG2 [13]; 1000 nM) was 72.8%. The cell viability (HepG2 [13]; 10000 nM) was 78.8%, the drug sensitivity score (U2OS [5]) was 0 and the drug sensitivity score (Calu-3 [6]) was 0. It also gave a drug sensitivity score (Caco-2 [7]) of 0.6, a drug sensitivity score (Vero E6 [8]) of 0 and a drug sensitivity score (HepG2 [14]) of 6.9. The “relative viability EC50” value (U2OS [9]) was greater than 10 µM, the “relative viability EC50” value (Calu-3 [10]) was greater than 10 µM and the “relative viability EC50” value (Caco-2 [11]) was greater than 10 µM. The “relative viability EC50” value (Vero E6 [12]) was greater than 10 µM.
